From US20250313563A1, “GLYCOGEN SYNTHASE KINASE 3 INHIBITORS AND USES THEREOF” (The Broad Institute, Inc., priority 2022, published 2025)
Read-outs that look alike come from different tables or passages of the source.

Experiments:
[1] = target: GSK3α (GST-full length GSK3α) (Homo sapiens (Human), UniProt P49840); experiment: GSK3α TR-FRET kinase assay; format: biochemical
Method in brief: (§1)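 1 nM GST-GSK3α/β + cpd, 30 min preinc; add 200 nM biotin-pS645 GS(631-650) peptide + ATP (α 4 μM / β 2 μM, or 1 mM); 100 min RT, 50 mM Tris pH 7.5, 20 mM MgCl2, 1% DMSO; EDTA stop; SA-d2/Tb-pSer641 Ab 60 min; 665/615 ratio → IC50.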

[2] = target: GSK3b (GST-full length GSK3b) (Homo sapiens (Human), UniProt P49841); experiment: GSK3b TR-FRET kinase assay; format: biochemical
Method in brief: as §1

[3] = 1 nM GSK3α, 4 μM ATP, 30 minute preincubation, Table 16, read-out: GSK3-A TR-FRET BIOCHEMICAL (TR-FRET)
[4] = 1 nM GSK3b, 2 μM ATP, 30 minute preincubation, Table 16, read-out: GSK3-B TR-FRET BIOCHEMICAL (TR-FRET)
[5] = read-out: GSK3-A (TR-FRET 1 mM ATP), GMean, IC50, 1 mM ATP, geometric mean
[6] = read-out: GSK3-B (TR-FRET 1 mM ATP), GMean, IC50, 1 mM ATP, geometric mean
[7] = 1 nM GSK3α, 4 μM ATP, 30 minute preincubation, read-out: GSK3-A TR-FRET BIOCHEMICAL (TR-FRET), IC50
[8] = 1 nM GSK3b, 2 μM ATP, 30 minute preincubation, read-out: GSK3-B TR-FRET BIOCHEMICAL (TR-FRET), IC50

Sequence of GSK3b (GST-full length GSK3b) (P49841 whole entry): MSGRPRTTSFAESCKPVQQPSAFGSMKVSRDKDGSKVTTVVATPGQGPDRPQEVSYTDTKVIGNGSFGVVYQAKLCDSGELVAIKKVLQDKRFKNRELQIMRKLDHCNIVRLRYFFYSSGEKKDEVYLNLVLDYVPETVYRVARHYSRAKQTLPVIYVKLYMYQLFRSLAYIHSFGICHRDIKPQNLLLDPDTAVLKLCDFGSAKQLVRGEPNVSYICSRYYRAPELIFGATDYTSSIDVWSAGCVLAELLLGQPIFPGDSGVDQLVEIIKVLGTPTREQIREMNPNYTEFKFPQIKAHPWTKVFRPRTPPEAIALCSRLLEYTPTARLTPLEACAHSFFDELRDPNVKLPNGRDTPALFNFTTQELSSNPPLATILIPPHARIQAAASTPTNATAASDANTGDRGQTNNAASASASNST
Sequence of GSK3α (GST-full length GSK3α) (P49840 whole entry): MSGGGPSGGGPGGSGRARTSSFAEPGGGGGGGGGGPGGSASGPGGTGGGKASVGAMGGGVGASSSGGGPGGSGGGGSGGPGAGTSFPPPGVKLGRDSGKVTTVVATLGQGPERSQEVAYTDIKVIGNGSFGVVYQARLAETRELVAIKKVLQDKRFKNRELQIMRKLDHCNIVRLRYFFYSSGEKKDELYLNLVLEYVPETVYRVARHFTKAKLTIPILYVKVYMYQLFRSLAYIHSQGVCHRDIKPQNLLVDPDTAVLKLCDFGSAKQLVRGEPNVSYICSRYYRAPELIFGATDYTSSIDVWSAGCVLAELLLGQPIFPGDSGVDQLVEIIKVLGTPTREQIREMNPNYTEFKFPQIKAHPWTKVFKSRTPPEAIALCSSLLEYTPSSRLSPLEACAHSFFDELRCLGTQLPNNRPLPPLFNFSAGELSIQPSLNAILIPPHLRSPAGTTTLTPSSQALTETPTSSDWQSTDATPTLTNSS

Compound	IC50 [1, 3] [nM]	IC50 [2, 4] [nM]	other results
CCC1(c2cccc(-c3c(C)cncc3C)c2)C2=C(CC(C)(C)CC2=O)Nc2n[nH]cc21 (centres unmarked) [Compound 945703]	≤ 100	≤ 100	–
CCC1(c2cccc(-c3c(F)cncc3OC)c2)C2=C(CC(C)(C)CC2=O)Nc2n[nH]cc21 (centres unmarked) [Compound 945704]	≤ 100	≤ 100	IC50 [1, 5]: ≤ 100 nM; IC50 [2, 6]: 100 to 1000 nM
CCC1(c2cccc(C(F)F)c2)C2=C(CC(C)(C)CC2=O)Nc2n[nH]c(C(F)(F)F)c21 (centres unmarked) [Compound 945710]	≤ 100	≤ 100	IC50 [1, 5]: ≤ 100 nM; IC50 [2, 6]: ≤ 100 nM
Cn1ccc(S(=O)(=O)N2CC[C@]3(C2)C2=C(CC(C)(C)CC2=O)Nc2n[nH]cc23)n1 [Compound 945712]	–	–	IC50 [1, 7]: ≤ 100 nM; IC50 ([1]; GSK3-A (TR-FRET 1 mM ATP), GMean, IC50, 1 mM ATP, geometric mean): ≤ 100 nM; IC50 [2, 8]: ≤ 100 nM; IC50 ([2]; GSK3-B (TR-FRET 1 mM ATP), GMean, IC50, 1 mM ATP, geometric mean): 100 to 1000 nM
CCC1(c2cccc(S(=O)(=O)C3CC3)c2)C2=C(CC(C)(C)CC2=O)Nc2n[nH]c(C(F)(F)F)c21 (centres unmarked) [Compound 945713]	≤ 100	≤ 100	IC50 [1, 5]: ≤ 100 nM; IC50 [2, 6]: ≤ 100 nM
Cn1ccc(S(=O)(=O)N2CC[C@@]3(C2)C2=C(CC(C)(C)CC2=O)Nc2n[nH]cc23)n1 [Compound 945714]	≤ 100	≤ 100	–
CC[C@]1(c2cccc(S(=O)(=O)C3CC3)c2)C2=C(CC(C)(C)CC2=O)Nc2n[nH]c(C(F)(F)F)c21 [Compound 945715]	≤ 100	≤ 100	–
CC1(C)CC(=O)C2=C(C1)Nc1n[nH]cc1[C@@]21CCN(S(=O)(=O)c2ccccc2F)C1 [Compound 945719]	≤ 100	≤ 100	–
CC[C@]1(c2cccc(-c3ccncc3O)c2)C2=C(CC(C)(C)CC2=O)Nc2n[nH]cc21 [Compound 945724]	≤ 100	≤ 100	IC50 [1, 5]: 100 to 1000 nM; IC50 [2, 6]: 1000 to 5000 nM
CCC1(c2cccc(-c3cncn3C(C)C)c2)C2=C(CC(C)(C)CC2=O)Nc2n[nH]cc21 (centres unmarked) [Compound 945725]	–	–	IC50 [1, 5]: ≤ 100 nM; IC50 [2, 6]: 100 to 1000 nM
CCc1cccc(N(C)c2cccc([C@]3(CC)C4=C(CC(C)(C)CC4=O)Nc4n[nH]cc43)c2)n1 [Compound 945726]	1000 to 5000	> 5000	–
CC[C@]1(c2cccc(-c3cnn(C)c3C)c2)C2=C(CC(C)(C)NC2=O)Nc2n[nH]c(C)c21 [Compound 945727]	–	–	IC50 [1, 7]: > 5000 nM; IC50 [2, 8]: > 5000 nM
CC[C@@]1(c2cccc(-c3ccncc3O)c2)C2=C(CC(C)(C)CC2=O)Nc2n[nH]cc21 [Compound 945728]	1000 to 5000	> 5000	–
CC1(C)CC(=O)C2=C(C1)Nc1n[nH]cc1[C@@]21CCC[C@@H](C#N)C1 [Compound 945906]	100 to 1000	100 to 1000	–
CCC1(c2cccc(C(F)(F)F)c2)C2=C(CC(C(C)(C)C)NC2=O)Nc2n[nH]cc21 (centres unmarked) [Compound 945921]	–	–	IC50 [1, 7]: 1000 to 5000 nM; IC50 [2, 8]: > 5000 nM
CC[C@]1(c2cccc(C(F)(F)F)c2)C2=C(C[C@@H](C(C)(C)C)NC2=O)Nc2n[nH]cc21 [Compound 945922]	–	–	IC50 [1, 7]: ≤ 100 nM; IC50 [2, 8]: 100 to 1000 nM
CCC1(c2cccc(C(F)(F)F)c2)C2=C(CC(C(C)(C)C)NC2=O)Nc2n[nH]cc21 (centres unmarked) [Compound 945923]	–	–	IC50 [1, 7]: > 5000 nM; IC50 [2, 8]: > 5000 nM
CCC1(c2cccc(Oc3cncnc3)c2)C2=C(CC(C)(C)CC2=O)Nc2n[nH]cc21 (centres unmarked) [Compound 945939]	100 to 1000	> 5000	–
CCC1(c2cccc(Nc3ncccn3)c2)C2=C(CC(C)(C)CC2=O)Nc2n[nH]cc21 (centres unmarked) [Compound 945943]	≤ 100	100 to 1000	–
CCC1(c2cccc(Nc3ncccn3)c2)C2=C(CC(C)(C)CC2=O)Nc2n[nH]cc21 (centres unmarked) [Compound 945958]	1000 to 5000	> 5000	–
CCC1(c2cccc(-c3ccnc(CCO)c3)c2)C2=C(CC(C)(C)CC2=O)Nc2n[nH]cc21 (centres unmarked) [Compound 945992]	≤ 100	100 to 1000	–
CCC1(c2cccc(-c3ccnc(C)c3C)c2)C2=C(CC(C)(C)NC2=O)Nc2n[nH]cc21 (centres unmarked) [Compound 945994]	–	–	IC50 [1, 7]: ≤ 100 nM; IC50 [2, 8]: 100 to 1000 nM
CC[C@]1(c2cccc(-c3cc(C)ncc3OC)c2)C2=C(CC(C)(C)CC2=O)Nc2n[nH]cc21 [Compound 945995]	≤ 100	≤ 100	IC50 [1, 5]: 100 to 1000 nM; IC50 [2, 6]: 1000 to 5000 nM
CC[C@]1(c2cccc(-c3ccnc(C)c3OC)c2)C2=C(CC(C)(C)CC2=O)Nc2n[nH]cc21 [Compound 945997]	≤ 100	≤ 100	IC50 [1, 5]: 100 to 1000 nM; IC50 [2, 6]: 1000 to 5000 nM
